Results reported in patent US9833497B2, “Human originated EGF domain proteins and use of the same” (CHENGDU SOURCEBIO LIMITED-LIABILITY COMPANY, priority 2013, dated 2017).

Assays:
Format in all cases: cell-based
E. coli DH5α = test: Antibacterial activity: MIC and growth curve against E. coli DH5α in 96-well plate; conditions: minimal inhibitory concentration against E. coli DH5α; 96-well plate, 5×10^5 CFU/mL, 37° C., judged after 8 h
Procedure, shortened: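 MIC taken as lowest protein level with no bacterial growth, tracked by A600 every 30 min during 37 °C, 175 rpm culture. Two-fold protein series 50-12.5 μg/mL final, triplicate wells, against 5×10^5 CFU/mL of LB-washed mid-log cells.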

Enterobacter cloacae = test: MIC against Gram-negative bacteria: Enterobacter cloacae; conditions: 5×10^5 CFU/mL; for MIC against E. cloacae: 96-well plate, 37° C., 10 h; for MIC (μg/mL) E. cloacae: 10 h cultivation at 37° C.
Procedure, shortened: (§1)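 Growth inhibition by human EGF domain proteins was scored in LB liquid culture seeded at 5×10^5 CFU/mL. Protein was applied as a two-fold dilution series in triplicate, with shaking incubation at 37° C; MIC is the lowest concentration giving no growth.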

Pseudomonas aeruginosa = test: MIC against Gram-negative bacteria: Pseudomonas aeruginosa; conditions: 5×10^5 CFU/mL; for MIC against P. aeruginosa: 96-well plate, 37° C., 10 h; for MIC (μg/mL) P. aeruginosa: 10 h cultivation at 37° C.
Procedure, shortened: as §1

Aeromonas hydrophila = test: MIC against Gram-negative bacteria: Aeromonas hydrophila; conditions: 5×10^5 CFU/mL; for MIC against A. hydrophila: 96-well plate, 37° C., 10 h; for MIC (μg/mL) A. hydrophila: 10 h cultivation at 37° C.
Procedure, shortened: as §1

Citrobacter diversus = test: MIC against Gram-negative bacteria: Citrobacter diversus; conditions: 5×10^5 CFU/mL; for MIC against C. diversus: 96-well plate, 37° C., 10 h; for MIC (μg/mL) C. diversus: 10 h cultivation at 37° C.
Procedure, shortened: as §1

Moraxella catarrhalis = test: MIC against Gram-negative bacteria: Moraxella catarrhalis; conditions: 5×10^5 CFU/mL; for MIC against M. catarrhalis: 96-well plate, 37° C., 10 h; for MIC (μg/mL) M. catarrhalis: 10 h cultivation at 37° C.
Procedure, shortened: as §1

E. coli BL21 = test: MIC against Gram-negative bacteria: E. coli BL21; conditions: 5×10^5 CFU/mL; for MIC against E. coli BL21: 96-well plate, 37° C., 10 h; for MIC (μg/mL) E. coli BL21: 10 h cultivation at 37° C.
Procedure, shortened: as §1

Proteus vulgaris = test: MIC against Gram-negative bacteria: Proteus vulgaris; conditions: 5×10^5 CFU/mL; for MIC against P. vulgaris: 96-well plate, 37° C., 10 h; for MIC (μg/mL) P. vulgaris: 10 h cultivation at 37° C.
Procedure, shortened: as §1

Proteus mirabilis = test: MIC against Gram-negative bacteria: Proteus mirabilis; conditions: 5×10^5 CFU/mL; for MIC against P. mirabilis: 96-well plate, 37° C., 10 h; for MIC (μg/mL) P. mirabilis: 10 h cultivation at 37° C.
Procedure, shortened: as §1

Klebsiella pneumonia = test: MIC against Gram-negative bacteria: Klebsiella pneumonia; conditions: 5×10^5 CFU/mL; for MIC against K. pneumonia: 96-well plate, 37° C., 10 h; for MIC (μg/mL) K. pneumonia: 10 h cultivation at 37° C.
Procedure, shortened: as §1

Serratia marcescens = test: MIC against Gram-negative bacteria: Serratia marcescens; conditions: 5×10^5 CFU/mL; for MIC against S. marcescens: 96-well plate, 37° C., 10 h; for MIC (μg/mL) S. marcescens: 10 h cultivation at 37° C.
Procedure, shortened: as §1

Row | Substance | MIC (E. coli DH5α) | MIC against E. cloacae (Enterobacter cloacae; Enterobacter cloacae) | MIC against P. aeruginosa (Pseudomonas aeruginosa; Pseudomonas aeruginosa) | MIC against A. hydrophila (Aeromonas hydrophila; Aeromonas hydrophila) | MIC against C. diversus (Citrobacter diversus; Citrobacter diversus) | MIC against M. catarrhalis (Moraxella catarrhalis; Moraxella catarrhalis) | MIC against E. coli BL21 (E. coli BL21; E. coli BL21) | MIC against P. vulgaris (Proteus vulgaris; Proteus vulgaris) | MIC against P. mirabilis (Proteus mirabilis; Proteus mirabilis) | MIC against K. pneumonia (Klebsiella pneumonia; Klebsiella pneumonia) | MIC (μg/mL) E. cloacae (Enterobacter cloacae) | MIC (μg/mL) P. aeruginosa (Pseudomonas aeruginosa) | MIC (μg/mL) A. hydrophila (Aeromonas hydrophila) | MIC (μg/mL) C. diversus (Citrobacter diversus) | MIC (μg/mL) M. catarrhalis (Moraxella catarrhalis) | MIC (μg/mL) E. coli BL21 (E. coli BL21; E. coli BL21) | MIC (μg/mL) P. vulgaris (Proteus vulgaris) | MIC (μg/mL) P. mirabilis (Proteus mirabilis) | MIC (μg/mL) K. pneumonia (Klebsiella pneumonia) | MIC (μg/mL) S. marcescens (Serratia marcescens) | other results
1 | PRT1316 (ELPVCQELRCPQNTQCSAEAPSCRCLPGYTQQGSE; listed as Homo sapiens) | 50 µg/mL | 12.5 µg/mL | 50 µg/mL | 50 µg/mL | 12.5 µg/mL | 50 µg/mL | 12.5 µg/mL | 50 µg/mL | 12.5 µg/mL | 25 µg/mL |  |  |  |  |  |  |  |  |  |  | MIC against S. marcescens (Serratia marcescens; Serratia marcescens): 12.5 µg/mL
2 | PRT557 (CGCSPAGTLPEGCDEAGRCLCQPEFAGPHCDRCRPGYHGFPNCQA; listed as Homo sapiens) | 12.5 µg/mL |  |  |  |  |  |  |  |  |  |  |  |  |  |  |  |  |  |  |  | MIC against E. cloacae (Enterobacter cloacae): 12.5 µg/mL; MIC against P. aeruginosa (Pseudomonas aeruginosa): 12.5 µg/mL; MIC against A. hydrophila (Aeromonas hydrophila): 25 µg/mL; MIC against C. diversus (Citrobacter diversus): 12.5 µg/mL; MIC against M. catarrhalis (Moraxella catarrhalis): 25 µg/mL; MIC against E. coli BL21 (E. coli BL21): 25 µg/mL; MIC against P. vulgaris (Proteus vulgaris): 25 µg/mL; MIC against P. mirabilis (Proteus mirabilis): 12.5 µg/mL; MIC against K. pneumonia (Klebsiella pneumonia): 25 µg/mL; MIC against S. marcescens (Serratia marcescens): 12.5 µg/mL
3 | PRT818 (DCRSACNCTAGAACDAVNGSCLCPAGRRGPRCA; listed as Homo sapiens) | 25 µg/mL |  |  |  |  |  |  |  |  |  | 12.5 µg/mL | 25 µg/mL | 25 µg/mL | 12.5 µg/mL | 25 µg/mL | 50 µg/mL | 12.5 µg/mL | 25 µg/mL | 12.5 µg/mL | 12.5 µg/mL | 
4 | PRT834 (DCADSPCCQQVCTNNPGGYECGCYAGYRLSADGCGCE; listed as Homo sapiens) | 50 µg/mL |  |  |  |  |  |  |  |  |  | 50 µg/mL | 12.5 µg/mL | 25 µg/mL | 12.5 µg/mL | 25 µg/mL | 25 µg/mL | 12.5 µg/mL | 50 µg/mL | 25 µg/mL | 25 µg/mL | 
5 | PRT1233 (ISEPCPSYCSGHGDCISGVCFCDLGYTAAQGTCV; listed as Homo sapiens) | 25 µg/mL | 12.5 µg/mL | 25 µg/mL | 50 µg/mL | 12.5 µg/mL | 50 µg/mL | 12.5 µg/mL | 12.5 µg/mL | 25 µg/mL | 50 µg/mL |  |  |  |  |  |  |  |  |  |  | MIC against S. marcescens (Serratia marcescens; Serratia marcescens): 25 µg/mL
6 | PRT264 (SGQCLCRSGFAGTACELCAPGAFGPHCQAC; listed as Homo sapiens) | 12.5 µg/mL |  |  |  |  |  |  |  |  |  | 12.5 µg/mL | 12.5 µg/mL | 25 µg/mL | 50 µg/mL | 25 µg/mL | 50 µg/mL | 25 µg/mL | 12.5 µg/mL | 50 µg/mL | 12.5 µg/mL | 
